This note sets out measurements from PubChem BioAssay AID1259407 (Chemical Carcinogenesis Research Information System (CCRIS), 2018).

The subject of the data set is CCRIS mutagenicity, Ames/micronucleus/aberration tests. Briefly: CCRIS mutagenicity studies.
The mark [1] stands for this setting: Test System: AMES SALMONELLA TYPHIMURIUM, Strain/Indicator: TA98, Metabolic Activation: NONE, Method: PREINCUBATION
Where [2] appears, read: Test System: AMES SALMONELLA TYPHIMURIUM, Strain/Indicator: TA100, Metabolic Activation: NONE, Method: PREINCUBATION
The mark [3] stands for this setting: Test System: AMES SALMONELLA TYPHIMURIUM, Strain/Indicator: TA1535, Metabolic Activation: NONE, Method: PREINCUBATION

Each structure is given as a SMILES string. Calls of active or inactive are those of the source. How the calls were made is not given here.

`CCCCOCCOCCO`: the mutagenic call is “inactive; negative” (Test System: AMES SALMONELLA TYPHIMURIUM, Strain/Indicator: TA97, Metabolic Activation: HAMSTER, LIVER, S-9, AROCLOR 1254 (10 OR 30%), Method: PREINCUBATION); “inactive; negative” (Test System: AMES SALMONELLA TYPHIMURIUM, Strain/Indicator: TA97, Metabolic Activation: NONE, Method: PREINCUBATION); “inactive; negative” (Test System: AMES SALMONELLA TYPHIMURIUM, Strain/Indicator: TA97, Metabolic Activation: RAT, LIVER, S-9, AROCLOR 1254 (10 OR 30%), Method: PREINCUBATION); “inactive; negative” (Test System: AMES SALMONELLA TYPHIMURIUM, Strain/Indicator: TA98, Metabolic Activation: HAMSTER, LIVER, S-9, AROCLOR 1254 (10 OR 30%), Method: PREINCUBATION); “inactive; negative” under setting [1]; “inactive; negative” (Test System: AMES SALMONELLA TYPHIMURIUM, Strain/Indicator: TA98, Metabolic Activation: NONE, Method: STANDARD PLATE). For the same compound, the mutagenic call (Test System: AMES SALMONELLA TYPHIMURIUM, Strain/Indicator: TA98, Metabolic Activation: RAT, LIVER, S-9, AROCLOR 1254 (10 OR 30%), Method: PREINCUBATION) was “inactive; negative”; the mutagenic call (Test System: AMES SALMONELLA TYPHIMURIUM, Strain/Indicator: TA98, Metabolic Activation: RAT, LIVER, S-9, AROCLOR 1254, Method: STANDARD PLATE) was “inactive; negative”; the mutagenic call (Test System: AMES SALMONELLA TYPHIMURIUM, Strain/Indicator: TA100, Metabolic Activation: HAMSTER, LIVER, S-9, AROCLOR 1254 (10 OR 30%), Method: PREINCUBATION) was “inactive; negative”; the mutagenic call under setting [2] is “inactive; negative”; the mutagenic call (Test System: AMES SALMONELLA TYPHIMURIUM, Strain/Indicator: TA100, Metabolic Activation: NONE, Method: STANDARD PLATE) was “inactive; negative”; the mutagenic call (Test System: AMES SALMONELLA TYPHIMURIUM, Strain/Indicator: TA100, Metabolic Activation: RAT, LIVER, S-9, AROCLOR 1254 (10 OR 30%), Method: PREINCUBATION) was “inactive; negative”. In addition, the mutagenic call runs as follows: (Test System: AMES SALMONELLA TYPHIMURIUM, Strain/Indicator: TA100, Metabolic Activation: RAT, LIVER, S-9, AROCLOR 1254, Method: STANDARD PLATE) “inactive; negative”; (Test System: AMES SALMONELLA TYPHIMURIUM, Strain/Indicator: TA1535, Metabolic Activation: HAMSTER, LIVER, S-9, AROCLOR 1254 (10 OR 30%), Method: PREINCUBATION) “inactive; negative”; under setting [3], “inactive; negative”; (Test System: AMES SALMONELLA TYPHIMURIUM, Strain/Indicator: TA1535, Metabolic Activation: NONE, Method: STANDARD PLATE) “inactive; negative”; (Test System: AMES SALMONELLA TYPHIMURIUM, Strain/Indicator: TA1535, Metabolic Activation: RAT, LIVER, S-9, AROCLOR 1254 (10 OR 30%), Method: PREINCUBATION) “inactive; negative”; (Test System: AMES SALMONELLA TYPHIMURIUM, Strain/Indicator: TA1535, Metabolic Activation: RAT, LIVER, S-9, AROCLOR 1254, Method: STANDARD PLATE) “inactive; negative”. For the same compound, the mutagenic call reads like this: (Test System: AMES SALMONELLA TYPHIMURIUM, Strain/Indicator: TA1537, Metabolic Activation: NONE, Method: STANDARD PLATE) “inactive; negative”; (Test System: AMES SALMONELLA TYPHIMURIUM, Strain/Indicator: TA1537, Metabolic Activation: RAT, LIVER, S-9, AROCLOR 1254, Method: STANDARD PLATE) “inactive; negative”; (Test System: AMES SALMONELLA TYPHIMURIUM, Strain/Indicator: TA1538, Metabolic Activation: NONE, Method: STANDARD PLATE) “inactive; negative”; (Test System: AMES SALMONELLA TYPHIMURIUM, Strain/Indicator: TA1538, Metabolic Activation: RAT, LIVER, S-9, AROCLOR 1254, Method: STANDARD PLATE) “inactive; negative”; (Test System: CHINESE HAMSTER OVARY, Strain/Indicator: CHO-K1-BH4 (HGPRT)/6-THIOGUANINE, Metabolic Activation: NONE) “inactive; negative”; (Test System: CHINESE HAMSTER OVARY, Strain/Indicator: CHO-K1-BH4 (HGPRT)/THIOGUANINE, Metabolic Activation: RAT, LIVER, S-9, AROCLOR 1254) “inactive; negative”. For the same compound, the mutagenic call (Test System: MOUSE LYMPHOMA, Strain/Indicator: L5178Y (TK+/TK-), Metabolic Activation: NONE, Method: SUSPENSION/PLATE) was “active; positive”; the mutagenic call (Test System: MOUSE LYMPHOMA, Strain/Indicator: L5178Y (TK+/TK-), Metabolic Activation: RAT, LIVER, S-9, AROCLOR 1254, Method: SUSPENSION/PLATE) is “inactive; negative”; the mutagenic call (Test System: UDS RAT HEPATOCYTES, Strain/Indicator: THY INCORP, Metabolic Activation: NONE, Method: AUTORADIOGRAPHY) was “inactive; negative”.

As to `Oc1ccc2cc3ccc4cccc5ccc(c2c1)c3c45`, the mutagenic call runs as follows: (Test System: AMES SALMONELLA TYPHIMURIUM, Strain/Indicator: TA98, Metabolic Activation: RAT, LIVER, 3-METHYLCHOLANTHRENE, Method: LIQUID SUSPENSION) “active; positive”; (Test System: AMES SALMONELLA TYPHIMURIUM, Strain/Indicator: TA1538, Metabolic Activation: RAT, LIVER, 3-METHYLCHOLANTHRENE, Method: LIQUID SUSPENSION) “active; positive”; (Test System: CHINESE HAMSTER V-79, Strain/Indicator: V-79/OUABAIN, Metabolic Activation: NONE, Method: STANDARD PLATE) “active; positive”.

Regarding `CC(=O)Nc1ccc(Cc2ccc(N)c(Cl)c2)cc1Cl`, the mutagenic call was “inactive; negative” under setting [2] and “active; positive” (Test System: AMES SALMONELLA TYPHIMURIUM, Strain/Indicator: TA100, Metabolic Activation: RAT, LIVER, S-9, AROCLOR 1254 (50, 100 OR 200 µL), Method: PREINCUBATION).

On to `CCCCC(CC)COP(OCC(CC)CCCC)OCC(CC)CCCC` (centres undefined), for which the mutagenic call reads like this: (Test System: AMES SALMONELLA TYPHIMURIUM, Strain/Indicator: TA98, Metabolic Activation: HAMSTER, LIVER, S-9, AROCLOR 1254 (10%), Method: PREINCUBATION) “inactive; negative”; under setting [1], “inactive; negative”; (Test System: AMES SALMONELLA TYPHIMURIUM, Strain/Indicator: TA98, Metabolic Activation: RAT, LIVER, S-9, AROCLOR 1254 (10%), Method: PREINCUBATION) “inactive; negative”; (Test System: AMES SALMONELLA TYPHIMURIUM, Strain/Indicator: TA100, Metabolic Activation: HAMSTER, LIVER, S-9, AROCLOR 1254 (10%), Method: PREINCUBATION) “inactive; negative”; under setting [2], “inactive; negative”; (Test System: AMES SALMONELLA TYPHIMURIUM, Strain/Indicator: TA100, Metabolic Activation: RAT, LIVER, S-9, AROCLOR 1254 (10%), Method: PREINCUBATION) “inactive; negative”. Moreover, the mutagenic call by setting is: (Test System: AMES SALMONELLA TYPHIMURIUM, Strain/Indicator: TA1535, Metabolic Activation: HAMSTER, LIVER, S-9, AROCLOR 1254 (10%), Method: PREINCUBATION) “inactive; negative”; under setting [3], “inactive; negative”; (Test System: AMES SALMONELLA TYPHIMURIUM, Strain/Indicator: TA1535, Metabolic Activation: RAT, LIVER, S-9, AROCLOR 1254 (10%), Method: PREINCUBATION) “inactive; negative”; (Test System: AMES SALMONELLA TYPHIMURIUM, Strain/Indicator: TA1537, Metabolic Activation: HAMSTER, LIVER, S-9, AROCLOR 1254 (10%), Method: PREINCUBATION) “inactive; negative”; (Test System: AMES SALMONELLA TYPHIMURIUM, Strain/Indicator: TA1537, Metabolic Activation: NONE, Method: PREINCUBATION) “inactive; negative”; (Test System: AMES SALMONELLA TYPHIMURIUM, Strain/Indicator: TA1537, Metabolic Activation: RAT, LIVER, S-9, AROCLOR 1254 (10%), Method: PREINCUBATION) “inactive; negative”.
